From article PMC7248098, “Biochemical characterization and inhibition of the alternative oxidase enzyme from the fungal phytopathogen Moniliophthora perniciosa” (Communications Biology, 2020)
Several values for one entry are separate records, joined by “and”; a condition that tells them apart may be missing. Identical values can stand only once. Entries after “also recorded” stand apart in the source; their conditions may differ. Like-named read-outs stand apart in the source and are kept apart here.

Columns and labels:
Assay type in all cases: biochemical
[1] = target: rMpAOX incorporated into proteoliposomes (Moniliophthora perniciosa, UniProt A8QJP8); experiment: rMpAOX incorporated into proteoliposomes with Q10 and NDH-2 (NADH oxidation); conditions: substrate ubiquinol-10 in proteoliposomes, ~50 ng rMpAOX, 300 µM NADH
Chain of rMpAOX incorporated into proteoliposomes (A8QJP8 entry or part of it): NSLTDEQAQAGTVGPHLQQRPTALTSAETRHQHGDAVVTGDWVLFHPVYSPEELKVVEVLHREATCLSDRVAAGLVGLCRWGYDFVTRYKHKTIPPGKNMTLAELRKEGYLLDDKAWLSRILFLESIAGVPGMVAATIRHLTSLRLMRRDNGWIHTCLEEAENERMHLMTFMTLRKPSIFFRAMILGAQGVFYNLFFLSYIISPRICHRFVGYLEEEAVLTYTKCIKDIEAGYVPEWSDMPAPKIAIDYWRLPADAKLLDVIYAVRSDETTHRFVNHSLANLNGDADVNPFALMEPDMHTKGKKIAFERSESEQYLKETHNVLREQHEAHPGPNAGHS
Experimental: Proteoliposomes (PL) were prepared as previously described[44],[45], except that NDH-2 was used instead of complex I and 0.5% DDM was used instead of OG. […] For kinetic studies, PLs were prepared with 50 µg rMpAOX and no NDH-2—in this case, pure NDH-2 was added directly into the enzymatic reaction mixture at a saturating concentration. Briefly, lipids and Q10 stocks in chloroform were mixed in a glass vial and the chloroform dried under a nitrogen stream. The lipids were hydrated and extruded through a 100 nm NanoSizer MINI Liposome Extruder (T&T Scientific) followed by the addition of protein. After treatment with the Bio-Beads SM-2 Resin (Bio-Rad), proteolipososmes were harvested by ultracentrifugation and resuspended in 150 µL of buffer. Enzymatic assays were performed on the same day.
(§1) Respiration rates were recorded before and after the addition of putative AOX activators, such as 5′-ADP, 5′-AMP, 5′-GDP, 5′-GMP, glyoxylate, oxaloacetate, pyruvate or succinate (1 mM each unless stated otherwise). […] Data were acquired with the Multiskan FC Microplate Photometer (ThermoFisher). […] Absorbance readings were taken periodically and a blank reactions (substrate without enzyme) were included in every assay and were used to determine and subtract the autoxidation rate (background). Proteoliposomes were assayed as described for the E. coli membrane fraction except that no KCN was included and 0.5 µL of the prep (~50 ng rMpAOX) were added into the reaction. When tested, inhibitors were preincubated with the enzyme in reaction buffer for 2–5 min before starting the reaction by the addition of substrate. The path length (i.e., the height of the reaction medium inside the well) was calculated based on the reaction volume and the well cross-section area informed by the supplier. GraphPad Prism 7.0 (GraphPad Software Inc.) was used for function fitting.

membrane-bound rMpAOX [2] = target: T1, membrane-bound rMpAOX (Moniliophthora perniciosa, UniProt A8QJP8); experiment: Dose-response assay of inhibitors with membrane-bound, GMP-activated rMpAOX (NADH oxidation); conditions: for IC50: membrane-bound, GMP-activated rMpAOX, read-out: IC50
T1 sequence (A8QJP8 entry or part of it): as above
Experimental: (§2) E. coli membrane preparation was performed as described with minor modifications. […] The cells were disrupted using two passes at […] through a pre-cooled Constant cell disruption system (Constant Systems Ltd). The lysate was centrifuged for 15 min at 16,000 rcf, and the pelleted unbroken cells and large cell debris were discarded. The supernatant was centrifuged for 90 min at 200,000 rcf to collect the fragmented membranes.
as §1

membrane-bound rMpAOX [3] = target: T1, membrane-bound rMpAOX; experiment: Membrane-bound rMpAOX activity with putative activators (O2 uptake, oxygraph; dose-response); conditions: for Fold-change in membrane-bound rMpAOX O2 uptake: 1 mM each; for Fold-change in membrane-bound rMpAOX O2 uptake / fold induction at 1000 µM: single independent measurements (Fig1a); for fold induction at 1000 µM: pH 7.5, 1 mM each, read-out: Fold-change in membrane-bound rMpAOX O2 uptake
Experimental: as §2, §1

[4] = log[I], M -4.60206 (Fig2b), 25 µM
[5] = log[I], M -5.60206 (Fig2b), 2.5 µM
[6] = log[I], M -6.60206 (Fig2b), 0.25 µM
[7] = log[I], M -7.60206 (Fig2b), 0.025 µM
[8] = log[I], M -7.60206 (Fig2b), read-out: Fractional velocity, %
[9] = log[I], M -8.60206 (Fig2b), 0.0025 µM
[10] = log[I], M -9.60206 (Fig2b), 0.00025 µM
[11] = log[I], M -9.60206 (Fig2b), read-out: Fractional velocity, %
[12] = log[I], M -10.6021 (Fig2b), 25 pM
[13] = log[I], M -10.6021 (Fig2b), read-out: Fractional velocity, %

With `COC1=C(OC)C(=O)C(C/C=C(\C)CC/C=C(\C)CC/C=C(\C)CC/C=C(\C)CC/C=C(\C)CC/C=C(\C)CC/C=C(\C)CC/C=C(\C)CC/C=C(\C)CCC=C(C)C)=C(C)C1=O` [Q10] the Km [1] was 960 ± 760 µM and the VMax [1] was 59.4 µmol Q10 min^−1 mg^−1 and 59.4 ± 6.6 µmol Q10 min^−1 mg^−1.
With `CCCCCCCCOC(=O)c1cc(O)c(O)c(O)c1` [OG, octyl gallate] the “Fractional velocity, %” value (membrane-bound rMpAOX [2]; [4]) was 3.004% and 2.353% and 7.7435%, the “Fractional velocity, %” value (membrane-bound rMpAOX [2]; [5]) was 37.6641% and 53.0018% and 32.2387% and the “Fractional velocity, %” value (membrane-bound rMpAOX [2]; [6]) was 91.8565% and 76.0465%. For the same compound, the activity at 0.25 µM (membrane-bound rMpAOX [2]; log[I], M -6.60206 (Fig2b), read-out: Fractional velocity, %) was 92.7%, the “Fractional velocity, %” value (membrane-bound rMpAOX [2]; [7]) was 96.9123% and 87.3681% and the activity at 0.025 µM (membrane-bound rMpAOX [2]; [8]) was 99%. For the same compound, the “Fractional velocity, %” value (membrane-bound rMpAOX [2]; [9]) was 100.043% and 88.594%, the activity at 0.0025 µM (membrane-bound rMpAOX [2]; log[I], M -8.60206 (Fig2b), read-out: Fractional velocity, %) was 98.8% and the “Fractional velocity, %” value (membrane-bound rMpAOX [2]; [10]) was 96.5387% and 94.2199%. For the same compound, the activity at 0.00025 µM (membrane-bound rMpAOX [2]; [11]) was 98%, the “Fractional velocity, %” value (membrane-bound rMpAOX [2]; [12]) was 93.2034% and 90.1921% and the activity at 25 pM (membrane-bound rMpAOX [2]; [13]) was 93.9%. The IC50 (membrane-bound rMpAOX [2]) was 1.67 µM.
For `C/C(=C\Cc1c(O)c(Cl)c(C)c(C=O)c1O)CC/C=C(\C)[C@@H]1CC(=O)C(C)(C)O1` [AF, ascofuranone], the “Fractional velocity, %” value (membrane-bound rMpAOX [2]; [4]) was 3.958% and 2.609% and 7.671%, the “Fractional velocity, %” value (membrane-bound rMpAOX [2]; [5]) was 3.068% and 1.958% and 7.541% and the “Fractional velocity, %” value (membrane-bound rMpAOX [2]; [6]) was 2.9011% and 3.314% and 8.873%. The “Fractional velocity, %” value (membrane-bound rMpAOX [2]; [7]) was 31.9402% and 19.7329%, the activity at 0.025 µM (membrane-bound rMpAOX [2]; [8]) was 20.3% and the “Fractional velocity, %” value (membrane-bound rMpAOX [2]; [9]) was 81.2456% and 95.1772% and 65.5719%. The “Fractional velocity, %” value (membrane-bound rMpAOX [2]; [10]) was 94.8574% and 87.6342%, the activity at 0.00025 µM (membrane-bound rMpAOX [2]; [11]) was 88% and the “Fractional velocity, %” value (membrane-bound rMpAOX [2]; [12]) was 94.1707% and 88.3377%. For the same compound, the activity at 25 pM (membrane-bound rMpAOX [2]; [13]) was 93.1% and the IC50 (membrane-bound rMpAOX [2]) was 0.0088 µM.
For `Nc1nc2c(ncn2[C@@H]2O[C@H](COP(=O)(O)OP(=O)(O)O)[C@@H](O)[C@H]2O)c(=O)[nH]1` [GDP, 5′-GDP], the “Increase of membrane-bound rMpAOX oxygen uptake” value (membrane-bound rMpAOX [3]; 1 mM activator) was “did not have any noticeable effect; also recorded: no effect”, the “Fold-change in membrane-bound rMpAOX O2 uptake” value (membrane-bound rMpAOX [3]) was 1.198 and 1.036 and 1.118 and the “Increase of rMpAOX basal rate” value (membrane-bound rMpAOX [3]; 6.5 mM) was 1.5 times.
`O=C(O)CC(=O)C(=O)O` [OXAL, oxaloacetate] was tested, and the “Fold-change in membrane-bound rMpAOX O2 uptake” value (membrane-bound rMpAOX [3]; 1000 µM) was 0.932 and 1.186 and the fold induction at 1000 µM (membrane-bound rMpAOX [3]) was 0.847.
For `CC(=O)C(=O)O` [PYR, pyruvate], the “Fold-change in membrane-bound rMpAOX O2 uptake” value (membrane-bound rMpAOX [3]; 1000 µM) was 0.7655 and 0.9453 and the fold induction at 1000 µM (membrane-bound rMpAOX [3]) was 0.681.
In the case of `O=C(NO)c1ccccc1O` [SHAM, salicylhydroxamic acid], the “Fractional velocity, %” value (membrane-bound rMpAOX [2]; [4]) is reported as 95.8272% and 90.1105%, the “Fractional velocity, %” value (membrane-bound rMpAOX [2]; [5]) is reported as 96.6342% and 84.7725% and the “Fractional velocity, %” value (membrane-bound rMpAOX [2]; [6]) is reported as 99.0344% and 87.1837%. The “Fractional velocity, %” value (membrane-bound rMpAOX [2]; [7]) was 97.5117% and 94.5942%, the “Fractional velocity, %” value (membrane-bound rMpAOX [2]; [9]) was 99.3055% and 95.1323% and the “Fractional velocity, %” value (membrane-bound rMpAOX [2]; [10]) was 99.8162% and 99.1897%. The “Fractional velocity, %” value (membrane-bound rMpAOX [2]; [12]) was 99.1867% and 91.0587%, the activity at 25 µM (membrane-bound rMpAOX [2]; read-out: Fractional velocity, %, log[I], M -4.60206 (Fig2b)) was 96.4% and the activity at 2.5 µM (membrane-bound rMpAOX [2]; read-out: Fractional velocity, %, log[I], M -5.60206 (Fig2b)) was 98%. The activity at 0.25 µM (membrane-bound rMpAOX [2]; read-out: Fractional velocity, %, log[I], M -6.60206 (Fig2b)) was 96.1%, the activity at 0.025 µM (membrane-bound rMpAOX [2]; read-out: Fractional velocity, %, log[I], M -7.60206 (Fig2b)) was 95.6% and the activity at 0.0025 µM (membrane-bound rMpAOX [2]; read-out: Fractional velocity, %, log[I], M -8.60206 (Fig2b)) was 94.9%. For the same compound, the activity at 0.00025 µM (membrane-bound rMpAOX [2]; read-out: Fractional velocity, %, log[I], M -9.60206 (Fig2b)) was 93.7%, the activity at 25 pM (membrane-bound rMpAOX [2]; read-out: Fractional velocity, %, log[I], M -10.6021 (Fig2b)) was 88.7% and the “Effect on membrane-bound rMpAOX” value (membrane-bound rMpAOX [2]; up to the maximal tested concentration of 25 µM) was “did not exert any effect”.
